What was measured:
[1] = Hill coefficient was determined; type: ADME
Melanocortin receptor 4 = Melanocortin receptor 4 (Homo sapiens, UniProt P32245); assay: Binding affinity towards human melanocortin 4 receptor was determined using [125I]-NDP-alpha-MSH as radioligand transfected in HEK293 human embryonic kidney cells; type: cell-based; conditions: read-out: EC50
Melanocortin receptor 4, sequence (P32245 whole entry): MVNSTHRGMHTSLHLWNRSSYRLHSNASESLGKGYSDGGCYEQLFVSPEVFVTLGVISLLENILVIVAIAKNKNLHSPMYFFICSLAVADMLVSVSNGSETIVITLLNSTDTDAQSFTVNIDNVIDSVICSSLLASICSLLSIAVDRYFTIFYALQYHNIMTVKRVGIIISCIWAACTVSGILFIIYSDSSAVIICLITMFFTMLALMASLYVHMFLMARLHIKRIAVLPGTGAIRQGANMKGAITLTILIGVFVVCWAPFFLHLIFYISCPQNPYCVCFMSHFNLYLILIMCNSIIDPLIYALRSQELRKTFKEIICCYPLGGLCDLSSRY

Structure (SMILES)	Hill coefficient [1]	binding affinity (radioligand displacement) (Melanocortin receptor 4)	binding affinity (radioligand displacement) (Melanocortin receptor 4; hek293)
CC(=O)N[C@@H](Cc1c[nH]cn1)C(=O)N[C@H](Cc1ccccc1)C(=O)N[C@@H](CCCN=C(N)N)C(=O)N[C@@H](Cc1c[nH]c2ccccc12)C(=O)NCCC(=O)NCC(=O)NCCC(=O)NCC(=O)NCCC(=O)NCC(=O)NCCC(=O)N[C@@H](Cc1c[nH]cn1)C(=O)N[C@H](Cc1ccccc1)C(=O)N[C@@H](CCCN=C(N)N)C(=O)N[C@@H](Cc1c[nH]c2ccccc12)C(N)=O	0.88	571 nM	
CC(=O)N[C@@H](Cc1c[nH]cn1)C(=O)N[C@H](Cc1ccccc1)C(=O)N[C@@H](CCCN=C(N)N)C(=O)N[C@@H](Cc1c[nH]c2ccccc12)C(=O)Nc1ccc(C(=O)Nc2ccc(C(=O)N[C@@H](Cc3c[nH]cn3)C(=O)N[C@H](Cc3ccccc3)C(=O)N[C@@H](CCCN=C(N)N)C(=O)N[C@@H](Cc3c[nH]c4ccccc34)C(N)=O)cc2)cc1	1.12	123 nM	
CC(=O)N[C@@H](Cc1c[nH]cn1)C(=O)N[C@H](Cc1ccccc1)C(=O)N[C@@H](CCCN=C(N)N)C(=O)N[C@@H](Cc1c[nH]c2ccccc12)C(=O)N1CCC[C@H]1C(=O)NCC(=O)N1CCC[C@H]1C(=O)N[C@@H](Cc1c[nH]cn1)C(=O)N[C@H](Cc1ccccc1)C(=O)N[C@@H](CCCN=C(N)N)C(=O)N[C@@H](Cc1c[nH]c2ccccc12)C(N)=O	0.84	14 nM	
CC(=O)N[C@@H](Cc1c[nH]cn1)C(=O)N[C@H](Cc1ccccc1)C(=O)N[C@@H](CCCN=C(N)N)C(=O)N[C@@H](Cc1c[nH]c2ccccc12)C(=O)Nc1ccc(C(=O)N[C@@H](Cc2c[nH]cn2)C(=O)N[C@H](Cc2ccccc2)C(=O)N[C@@H](CCCN=C(N)N)C(=O)N[C@@H](Cc2c[nH]c3ccccc23)C(N)=O)cc1	1.05	38 nM	
CC(=O)N[C@@H](Cc1c[nH]cn1)C(=O)N[C@H](Cc1ccccc1)C(=O)N[C@@H](CCCN=C(N)N)C(=O)N[C@@H](Cc1c[nH]c2ccccc12)C(=O)N[C@@H](Cc1c[nH]cn1)C(=O)N[C@H](Cc1ccccc1)C(=O)N[C@@H](CCCN=C(N)N)C(=O)N[C@@H](Cc1c[nH]c2ccccc12)C(N)=O	0.9	264 nM	
CC(=O)N[C@@H](Cc1c[nH]cn1)C(=O)N[C@H](Cc1ccccc1)C(=O)N[C@@H](CCCN=C(N)N)C(=O)N[C@@H](Cc1c[nH]c2ccccc12)C(=O)NCCC(=O)NCC(=O)NCCC(=O)NCC(=O)NCCC(=O)N[C@@H](Cc1c[nH]cn1)C(=O)N[C@H](Cc1ccccc1)C(=O)N[C@@H](CCCN=C(N)N)C(=O)N[C@@H](Cc1c[nH]c2ccccc12)C(N)=O	1.09	231 nM	
CCCC[C@H](NC(C)=O)C(=O)N[C@@H](CCC(=O)O)C(=O)N[C@@H](Cc1cnc[nH]1)C(=O)N[C@H](Cc1ccccc1)C(=O)N[C@@H](CCCNC(=N)N)C(=O)N[C@@H](Cc1c[nH]c2ccccc12)C(=O)NCCC(=O)NCC(=O)NCCC(=O)N[C@@H](CCCC)C(=O)N[C@@H](CCC(=O)O)C(=O)N[C@@H](Cc1cnc[nH]1)C(=O)N[C@H](Cc1ccccc1)C(=O)N[C@@H](CCCNC(=N)N)C(=O)N[C@@H](Cc1c[nH]c2ccccc12)C(N)=O	0.91	7 nM	
CC(=O)N[C@@H](Cc1cnc[nH]1)C(=O)N[C@H](Cc1ccccc1)C(=O)N[C@@H](CCCNC(=N)N)C(=O)N[C@@H](Cc1c[nH]c2ccccc12)C(=O)NCCC(=O)NCC(=O)NCCC(=O)N[C@@H](Cc1cnc[nH]1)C(=O)N[C@H](Cc1ccccc1)C(=O)N[C@@H](CCCNC(=N)N)C(=O)N[C@@H](Cc1c[nH]c2ccccc12)C(N)=O	0.99	143 nM	
CC(=O)N[C@@H](Cc1c[nH]cn1)C(=O)N[C@H](Cc1ccccc1)C(=O)N[C@@H](CCCN=C(N)N)C(=O)N[C@@H](Cc1c[nH]c2ccccc12)C(=O)NCCC(=O)N[C@@H](Cc1c[nH]cn1)C(=O)N[C@H](Cc1ccccc1)C(=O)N[C@@H](CCCN=C(N)N)C(=O)N[C@@H](Cc1c[nH]c2ccccc12)C(N)=O	1.39	119 nM	
CC(=O)N[C@@H](Cc1c[nH]cn1)C(=O)N[C@H](Cc1ccccc1)C(=O)N[C@@H](CCCN=C(N)N)C(=O)N[C@@H](Cc1c[nH]c2ccccc12)C(=O)NCCOCCOCCNC(=O)CCC(=O)N[C@@H](Cc1c[nH]cn1)C(=O)N[C@H](Cc1ccccc1)C(=O)N[C@@H](CCCN=C(N)N)C(=O)N[C@@H](Cc1c[nH]c2ccccc12)C(N)=O	1.1	234 nM	
CC(=O)N[C@@H](Cc1cnc[nH]1)C(=O)N[C@H](Cc1ccccc1)C(=O)N[C@@H](CCCNC(=N)N)C(=O)N[C@@H](Cc1c[nH]c2ccccc12)C(=O)Nc1ccc(C(=O)Nc2ccc(C(=O)Nc3ccc(C(=O)N[C@@H](Cc4cnc[nH]4)C(=O)N[C@H](Cc4ccccc4)C(=O)N[C@@H](CCCNC(=N)N)C(=O)N[C@@H](Cc4c[nH]c5ccccc45)C(N)=O)cc3)cc2)cc1	1.05	164 nM	
CCCC[C@H](NC(C)=O)C(=O)N[C@@H](CCC(=O)O)C(=O)N[C@@H](Cc1c[nH]cn1)C(=O)N[C@H](Cc1ccccc1)C(=O)N[C@@H](CCCN=C(N)N)C(=O)N[C@@H](Cc1c[nH]c2ccccc12)C(=O)NCCOCCOCCNC(=O)CCC(=O)N[C@@H](CCCC)C(=O)N[C@@H](CCC(=O)O)C(=O)N[C@@H](Cc1c[nH]cn1)C(=O)N[C@H](Cc1ccccc1)C(=O)N[C@@H](CCCN=C(N)N)C(=O)N[C@@H](Cc1c[nH]c2ccccc12)C(N)=O	1.23	9 nM	
CC(=O)N[C@@H](Cc1c[nH]cn1)C(=O)N[C@H](Cc1ccccc1)C(=O)N[C@@H](CCCN=C(N)N)C(=O)N[C@@H](Cc1c[nH]c2ccccc12)C(=O)NCCCC[C@H](NC(=O)CCNC(=O)CNC(=O)CCNC(=O)[C@H](Cc1c[nH]c2ccccc12)NC(=O)[C@H](CCCN=C(N)N)NC(=O)[C@@H](Cc1ccccc1)NC(=O)[C@H](Cc1c[nH]cn1)NC(C)=O)C(=O)NCCC(=O)NCC(=O)NCCC(=O)N[C@@H](Cc1c[nH]cn1)C(=O)N[C@H](Cc1ccccc1)C(=O)N[C@@H](CCCN=C(N)N)C(=O)N[C@@H](Cc1c[nH]c2ccccc12)C(N)=O	1.56		24 nM
CCCC[C@H](NC(C)=O)C(=O)N[C@@H](CCC(=O)O)C(=O)N[C@@H](Cc1cnc[nH]1)C(=O)N[C@H](Cc1ccccc1)C(=O)N[C@@H](CCCNC(=N)N)C(=O)N[C@@H](Cc1c[nH]c2ccccc12)C(=O)NCCCOCCOCCOCCCNC(=O)CCC(=O)NCCCOCCOCCOCCCNC(=O)CCC(=O)N[C@@H](CCCC)C(=O)N[C@@H](CCC(=O)O)C(=O)N[C@@H](Cc1cnc[nH]1)C(=O)N[C@H](Cc1ccccc1)C(=O)N[C@@H](CCCNC(=N)N)C(=O)N[C@@H](Cc1c[nH]c2ccccc12)C(N)=O	0.97		122 nM
CC(=O)N[C@@H](Cc1c[nH]cn1)C(=O)N[C@H](Cc1ccccc1)C(=O)N[C@@H](CCCN=C(N)N)C(=O)N[C@@H](Cc1c[nH]c2ccccc12)C(=O)NCCCC[C@H](NC(=O)CCNC(=O)[C@H](Cc1c[nH]c2ccccc12)NC(=O)[C@H](CCCN=C(N)N)NC(=O)[C@@H](Cc1ccccc1)NC(=O)[C@H](Cc1c[nH]cn1)NC(C)=O)C(=O)NCCC(=O)N[C@@H](Cc1c[nH]cn1)C(=O)N[C@H](Cc1ccccc1)C(=O)N[C@@H](CCCN=C(N)N)C(=O)N[C@@H](Cc1c[nH]c2ccccc12)C(N)=O	1.13		15 nM
CC(=O)N[C@@H](Cc1c[nH]cn1)C(=O)N[C@H](Cc1ccccc1)C(=O)N[C@@H](CCCN=C(N)N)C(=O)N[C@@H](Cc1c[nH]c2ccccc12)C(=O)NCCCOCCOCCOCCCNC(=O)CCC(=O)N[C@@H](Cc1c[nH]cn1)C(=O)N[C@H](Cc1ccccc1)C(=O)N[C@@H](CCCN=C(N)N)C(=O)N[C@@H](Cc1c[nH]c2ccccc12)C(N)=O	1.83		662 nM
CCCC[C@H](NC(C)=O)C(=O)N[C@@H](CCC(=O)O)C(=O)N[C@@H](Cc1c[nH]cn1)C(=O)N[C@H](Cc1ccccc1)C(=O)N[C@@H](CCCN=C(N)N)C(=O)N[C@@H](Cc1c[nH]c2ccccc12)C(=O)NCCCOCCOCCOCCCNC(=O)CCC(=O)N[C@@H](CCCC)C(=O)N[C@@H](CCC(=O)O)C(=O)N[C@@H](Cc1c[nH]cn1)C(=O)N[C@H](Cc1ccccc1)C(=O)N[C@@H](CCCN=C(N)N)C(=O)N[C@@H](Cc1c[nH]c2ccccc12)C(N)=O	1.59		33 nM
